Reference: paper PMC11279897, “Isolation of Alpha-Glucosidase Inhibitors from the Panamanian Mangrove Plant Mora oleifera (Triana ex Hemsl.) Ducke” (Pharmaceuticals, 2024)

Assays:
alpha-glucosidase enzyme = assay: Inhibition of alpha-glucosidase assay (PNPG substrate, 96-well plate); assay type: biochemical; conditions: enzyme from Saccharomyces cerevisiae
Description: The assay was performed in 96-well plates. Both test samples and the positive control were dissolved in DMSO or MeOH. Test samples (20 μL) were added to their respective wells containing 150 μL of the enzyme (from Saccharomyces cerevisiae purchased from Sigma-Aldrich Co., St. Louis, MO, USA) solution (32 mU/mL), followed by incubation at 37 °C for 7 min. Subsequently, 150 μL of PNPG (4-Nitrophenyl-[…]-D-glucopyranoside, 2 mM) was introduced into each well, and the plate was further incubated at 37 °C for 20 min. The resulting absorbance, corresponding to the p-nitrophenol released during the reaction, was measured at 400 nm. All assays were performed in duplicate. The activity of the samples was calculated as a percentage relative to the control (DMSO or MeOH, instead of the sample solution), using the following equation: %Inhibition=(∆ Acontrol−∆ Asample)/∆ Acontrol×100%
ΔAcontrol: absorbance of the control—absorbance of the blank
ΔAsample: absorbance of the sample—absorbance of the sample blank.
The concentration necessary to achieve a 50% inhibition of enzyme activity (IC50) was calculated through regression analysis. Data obtained from alpha-glucosidase inhibition assays were expressed as the mean ± standard deviation (SD) of three replicates. Statistical analysis was performed using Excel 2019 (Microsoft, Seattle, WA, USA). Finally, a one-way analysis of variance (ANOVA) followed by Tukey’s post-test was used to evaluate possible differences between the means of each data. To determine significant differences, statistical significance was defined as p-values ≤ 0.05 [25].

alpha-glucosidase = assay: Kinetics of alpha-glucosidase inhibition (Lineweaver-Burk plot); assay type: biochemical, Saccharomyces cerevisiae; conditions: Lineweaver-Burk plots, two inhibitor concentrations, various PNPG concentrations
Description: To determine the mode of inhibition of the compounds, fixed amounts of alpha-glucosidase were incubated with increasing concentrations of PNPG at 37 °C for 15 min, both in the absence and presence of inhibitors. Subsequently, the reactions were stopped, the sample absorbances were measured, and then the values obtained were analyzed using the Lineweaver–Burk plot. For this assay, three evaluations were performed, one in the absence of the inhibitor and the other using different concentrations of the inhibitors (at concentrations equivalent to their respective IC50 values). Again, the evaluations of each compound were performed in triplicate.

| SMILES | IC50 (alpha-glucosidase enzyme) [nM] | mode of inhibition of alpha-glucosidase (alpha-glucosidase) |
| --- | --- | --- |
| C=C(C)[C@@H]1CC[C@]2(C)CC[C@]3(C)[C@H](CC[C@@H]4[C@@]5(C)CCC(=O)C(C)(C)[C@@H]5CC[C@]43C)[C@@H]12 [Compound 1, lupenone] | 720 | reversible competitive inhibition |
| C=C(C)[C@@H]1CC[C@]2(C)CC[C@]3(C)[C@H](CC[C@@H]4[C@@]5(C)CC[C@H](O)C(C)(C)[C@@H]5CC[C@]43C)[C@@H]12 [Compound 2, lupeol] | 1050 | – |
| C[C@H]1[C@H](C)CC[C@]2(C)CC[C@]3(C)C(=CC[C@@H]4[C@@]5(C)CC[C@H](O)C(C)(C)[C@@H]5CC[C@]43C)[C@H]12 [Compound 3, α-amyrin] | 2130 | – |
| CC1(C)CC[C@]2(C)CC[C@]3(C)C(=CC[C@@H]4[C@@]5(C)CC[C@H](O)C(C)(C)[C@@H]5CC[C@]43C)[C@@H]2C1 [Compound 4, β-amyrin] | 1220 | – |
| CCCCCCCCCCCCCCCC(=O)O [Compound 5, palmitic acid] | 240000 | – |
| CC[C@H](CC[C@@H](C)[C@H]1CC[C@H]2[C@@H]3CC=C4C[C@@H](O)CC[C@]4(C)[C@H]3CC[C@]12C)C(C)C [Compound 6, sitosterol] | 18700 | reversible competitive inhibition |
| CC[C@H](/C=C/[C@@H](C)[C@H]1CC[C@H]2[C@@H]3CC=C4C[C@@H](O)CC[C@]4(C)[C@H]3CC[C@]12C)C(C)C [Compound 7, stigmasterol] | 163000 | reversible competitive inhibition |
| C[C@H]1O[C@H](O[C@H]2[C@H](O)[C@@H](O)[C@@H](O[C@H]3[C@H](O)[C@@H](O)C(O)O[C@@H]3CO)O[C@@H]2CO)[C@H](O)[C@@H](O)[C@@H]1N[C@H]1C=C(CO)[C@@H](O)[C@H](O)[C@H]1O (some centres unmarked) [acarbose, reference compound] | – | competitive inhibition |
